This is an account of results in patent US10980809B2, “Urea-substituted aromatic ring-linked dioxane-quinazoline and -linked dioxane-quinoline compounds, preparation method therefor and use thereof” (BEIJING SCITECH-MQ PHARMACEUTICALS LIMITED, priority 2017, dated 2021).

Broadly, the IC50 is the concentration that inhibits the measured activity by half. Low values mean higher potency, high ones lower potency.

The structures appear in SMILES notation.

In this assay the target is VEGFR-2 kinase (Homo sapiens (Human), UniProt P35968). The experiment in a line: Test of small molecule compounds for inhibiting the activity of VEGFR-2 kinase. Format: biochemical. The settings on record: class symbols A-D. On the procedure: Test of Small Molecule Compounds for Inhibiting the Activity of VEGFR-2 Kinase
Sequence of VEGFR-2 kinase (P35968 20-1356): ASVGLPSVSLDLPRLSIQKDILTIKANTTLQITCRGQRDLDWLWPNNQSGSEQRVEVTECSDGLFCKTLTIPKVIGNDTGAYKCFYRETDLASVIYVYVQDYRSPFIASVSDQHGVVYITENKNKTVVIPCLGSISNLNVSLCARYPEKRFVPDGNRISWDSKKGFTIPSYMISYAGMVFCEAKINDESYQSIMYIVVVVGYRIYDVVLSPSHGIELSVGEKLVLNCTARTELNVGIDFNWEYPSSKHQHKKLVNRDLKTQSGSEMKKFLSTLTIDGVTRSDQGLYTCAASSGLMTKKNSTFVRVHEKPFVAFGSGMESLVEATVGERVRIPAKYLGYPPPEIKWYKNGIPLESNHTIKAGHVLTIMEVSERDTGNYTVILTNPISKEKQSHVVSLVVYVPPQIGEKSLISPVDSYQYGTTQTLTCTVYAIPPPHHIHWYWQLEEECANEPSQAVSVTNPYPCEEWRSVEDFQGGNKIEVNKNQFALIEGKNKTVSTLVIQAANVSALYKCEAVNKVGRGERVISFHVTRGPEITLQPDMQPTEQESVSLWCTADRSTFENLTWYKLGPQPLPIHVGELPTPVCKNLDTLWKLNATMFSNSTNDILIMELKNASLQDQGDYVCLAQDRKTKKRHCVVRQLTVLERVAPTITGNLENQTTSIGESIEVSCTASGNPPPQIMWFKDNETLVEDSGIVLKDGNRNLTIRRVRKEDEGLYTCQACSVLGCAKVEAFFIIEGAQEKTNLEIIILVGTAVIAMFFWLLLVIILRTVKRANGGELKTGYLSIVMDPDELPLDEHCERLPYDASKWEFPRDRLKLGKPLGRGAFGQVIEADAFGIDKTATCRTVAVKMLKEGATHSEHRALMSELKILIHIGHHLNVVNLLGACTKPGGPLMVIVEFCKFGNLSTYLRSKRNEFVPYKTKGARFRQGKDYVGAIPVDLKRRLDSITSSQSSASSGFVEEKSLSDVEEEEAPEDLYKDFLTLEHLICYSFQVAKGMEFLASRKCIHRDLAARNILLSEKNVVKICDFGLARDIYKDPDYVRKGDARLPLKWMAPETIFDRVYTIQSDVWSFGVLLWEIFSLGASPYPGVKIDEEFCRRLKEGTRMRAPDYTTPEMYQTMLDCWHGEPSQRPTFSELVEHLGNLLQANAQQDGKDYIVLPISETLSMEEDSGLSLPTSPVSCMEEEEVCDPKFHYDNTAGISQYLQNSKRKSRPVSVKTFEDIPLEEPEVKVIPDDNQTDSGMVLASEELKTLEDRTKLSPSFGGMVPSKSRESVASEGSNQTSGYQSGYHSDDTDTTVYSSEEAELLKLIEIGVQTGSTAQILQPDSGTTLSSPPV
The test was carried out as follows:
2. 2.5 μl of the gradient-diluted compounds was taken with a transfer pipette to a 384-well plate,
3. Addition of enzyme: 5 μl of 2×VEGFR-2 kinase was taken with a transfer pipette to the corresponding reaction well of the 384-well plate, which was mixed and pre-reacted at room temperature for 30 min,
5. Negative control: 2.5 μl/well 4× substrate/ATP Mix and 7.5 μl 1× Kinase Assay Buffer were added to the wells of the 384-well plate,
Positive control: 2.5 μl/well 4× substrate/ATP Mix, 2.5 μl/well 1× Kinase Assay Buffer containing 4% DMSO, and 5 μl/well 2×VEGFR-2 solution were added to the 384-well plate. The final concentration of DMSO in the reaction system is […],
6. The mixture was mixed well and then centrifuged and reacted at room temperature in dark for 60 min,
9. The 384-well plate was placed into the Envision plate reader and the signal was detected using the appropriate program,
For `COc1cc2ncnc(Oc3ccc(NC(=O)NC4CCCC4)c(Cl)c3)c2c2c1OCCO2` [Example 32, 1-(2-chloro-4-((5-methoxy-2,3-dihydro-[1,4]dioxino[2,3-f]quinazolin-10-yl)oxy)phenyl)-3-cyclopentylurea], the IC50 is under 0.05 µM. For `O=C(Nc1ccc(Oc2ncnc3cc(OCCCN4CCOCC4)c4c(c23)OCCO4)cc1)Nc1ccc(F)c(Cl)c1` [Example 74, 1-(3-chloro-4-fluorophenyl)-3-(4-((5-(3-morpholinopropoxy)-2,3-dihydro-[1,4]dioxino[2,3-f]quinazolin-10-yl)oxy)phenyl)urea], the IC50 is under 0.05 µM. For `COc1cccc(NC(=O)Nc2ccc(Nc3ncnc4cc(OC)c5c(c34)OCCO5)cc2Cl)c1` [Example 4, 1-(2-chloro-4-((5-methoxy-2,3-dihydro-[1,4]dioxino[2,3-f]quinazolin-10-yl)amino)phenyl)-3-(3-methoxyphenyl)urea] the value was under 0.05 µM; for `O=C(Nc1ccc(Nc2ncnc3cc(OCCCN4CCOCC4)c4c(c23)OCCO4)cc1Cl)NC1CC1` [Example 63], under 0.05 µM; for `COCCOc1cc2ncnc(Oc3ccc(NC(=O)Nc4cc(C(F)(F)F)ccc4F)cc3F)c2c2c1OCCO2` [Example 58, 1-(3-fluoro-4-((5-(2-methoxyethoxy)-2,3-dihydro-[1,4]dioxino[2,3-f]quinazolin-10-yl)oxy)phenyl)-3-(2-fluoro-5-(trifluoromethyl)phenyl)urea], under 0.05 µM. For `COCCOc1cc2ncnc(Oc3ccc(NC(=O)Nc4ccnc(OC)c4)cc3)c2c2c1OCCO2` [Example 52, 1-(4-((5-(2-methoxyethoxy)-2,3-dihydro-[1,4]dioxino[2,3-f]quinazolin-10-yl)oxy)phenyl)-3-(2-methoxypyridin-4-yl)urea] the value was under 0.05 µM; for `COc1cc2nccc(Oc3ccc(NC(=O)Nc4ccc(Cl)c(C(F)(F)F)c4)cc3F)c2c2c1OCCO2` [Example 91, 1-(4-chloro-3-(trifluoromethyl)phenyl)-3-(3-fluoro-4-((5-methoxy-2,3-dihydro-[1,4]dioxino[2,3-f]quinoline-10-yl)oxy)phenyl)urea], 0.05 to 0.5 µM. The same measure for `COc1cc2ncnc(Oc3ccc(NC(=O)Nc4ccc(F)cc4)c(Cl)c3)c2c2c1OCCO2` [Example 16, 1-(2-chloro-4-((5-methoxy-2,3-dihydro-[1,4]dioxino[2,3-f]quinazolin-10-yl)oxy)phenyl)-3-(4-fluorophenyl)urea]: under 0.05 µM. In turn, `O=C(Nc1ccc(Oc2ncnc3cc(OCCN4CCOCC4)c4c(c23)OCCO4)cc1)Nc1ccc(Cl)c(C(F)(F)F)c1` [Example 72, 1-(4-chloro-3-(trifluoromethyl)phenyl)-3-(4-((5-(2-morpholinoethoxy)-2,3-dihydro-[1,4]dioxino[2,3-f]quinazolin-10-yl)oxy)phenyl)urea] displayed an IC50 of 0.5 to 5 µM. `COc1cc2ncnc(Nc3ccc(NC(=O)NC4CCC4)c(Cl)c3)c2c2c1OCCO2` [Example 27, 1-(2-chloro-4-((5-methoxy-2,3-dihydro-[1,4]dioxino[2,3-f]quinazolin-10-yl)amino)phenyl)-3-cyclobutylurea] registered an IC50 of under 0.05 µM. Consider `COc1cc2ncnc(Nc3ccc(NC(=O)Nc4ccccc4)c(Cl)c3)c2c2c1OCCO2` [Example 6, 1-(2-chloro-4-((5-methoxy-2,3-dihydro-[1,4]dioxino[2,3-f]quinazolin-10-yl)amino)phenyl)-3-phenylurea], for which the IC50 is 0.05 to 0.5 µM. The same measure for `COc1cc(NC(=O)Nc2ccc(Oc3ncnc4cc(OC)c5c(c34)OCCO5)c(Cl)c2)ccn1` [Example 26, 1-(3-chloro-4-((5-methoxy-2,3-dihydro-[1,4]dioxino[2,3-f]quinazolin-10-yl)oxy)phenyl)-3-(2-methoxypyridin-4-yl)urea]: under 0.05 µM; for `COc1cc2ncnc(Oc3ccc(NC(=O)Nc4ccccc4)c(Cl)c3)c2c2c1OCCO2` [Example 14, 1-(2-chloro-4-((5-methoxy-2,3-dihydro-[1,4]dioxino[2,3-f]quinazolin-10-yl)oxy)phenyl)-3-phenylurea]: under 0.05 µM.
